Source: patent US20050031679A1, “Method for producing liposomal formulations of active ingredients” (priority 1998, published 2005)

Assay: Efficiency of inclusion of active ingredient added subsequently to a finished liposome gel
Type: physicochemical
Source text: This object is achieved by a method for producing liposomes which comprise as active ingredient at least one physiologically active or/and diagnostic compound, by production of a mixture of membrane-forming amphiphiles, dispersion of the mixture in water and high pressure homogenization of the dispersion until the liposomes are formed, which comprises • (a) adding the active ingredient to any liposome preparation, preferably a liposome gel, which contains at least 20% by weight lipid, and • (b) incubating the active ingredient-containing mixture, where appropriate with mechanical agitation, until • (i) hydrophilic active ingredients are distributed in the liposomes and between the liposomes in accordance with the proportions by volume of aqueous medium inside and outside the liposomes in the preparation (equilibrium state) or • (ii) lipophilic compounds are incorporated in the lipid bilayer, or • (iii) amphiphilic compounds have surmounted the lipid bilayer and are incorporated or associated in the outer regions of the lipid bilayer.
A liposome gel which contains the cytostatic gemcitabine as active component cannot be autoclaved because this antitumor agent promotes the hydrolysis of the phospholipids, leading to complete phospholipid degradation under standard conditions during autoclaving. […]

Row | efficiency of inclusion (autoclaved liposome gel mixed with concentrated buffered gemcitabine solution, incubation at 60° C. for four hours (equilibrium)) | efficiency of inclusion (added as solid substance to the liposome gel, incubated with shaking at 50° C. for 3 hours) [%] | SMILES
1 | more than 30% |  | Nc1ccn([C@@H]2O[C@H](CO)[C@@H](O)C2(F)F)c(=O)n1 [gemcitabine]
2 |  | 95 | C[C@@H]1[C@H](O)[C@@H](C)/C=C/C=C/C=C/C=C/C=C/C=C/C=C/[C@H](O[C@@H]2O[C@H](C)[C@@H](O)[C@H](N)[C@@H]2O)C[C@@H]2O[C@](O)(C[C@@H](O)C[C@@H](O)[C@H](O)CC[C@@H](O)C[C@@H](O)CC(=O)O[C@H]1C)C[C@H](O)[C@H]2C(=O)O [amphotericin B]
